Here are results for 19 compounds from patent US9346815B2, “5-chloro-2-difluoromethoxyphenyl pyrazolopyrimidine compounds, compositions and methods of use thereof” (Genentech, Inc., priority 2014, dated 2016).

In test [1] the target is isolated recombinant JAK1 kinase domain (Homo sapiens (Human), UniProt P23458). Kind of test: JAK1 enzyme assay (Caliper LabChip, peptide phosphorylation). It is filed as biochemical. To be noted: isolated recombinant JAK1 kinase domain, 25 μM ATP.
Test [2] has as its target isolated recombinant JAK2 kinase domain (Homo sapiens (Human), UniProt O60674). The test can be described thus: JAK2 enzyme assay (Caliper LabChip, peptide phosphorylation). The test is classed as biochemical. The note with it: 25 μM ATP.
Test [3] concerns JAK1-dependent STAT6 phosphorylation downstream of IL-13 stimulation in TF-1 human erythroleukemia cells. The test can be described thus: JAK1 pathway assay in TF-1 cells (IL-13-pSTAT6, MSD). The test is classed as cell-based. To be noted: Homo sapiens, TF-1, TF-1 cells, read-out: IL13-pSTAT6 EC50_TF-1. In outline: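 Inhibitors were added to TF-1 cells (GM-CSF-starved, serum-free) for 30 min or to BEAS-2B cells (complete medium) for 1 hr at 37° C. MSD detected pSTAT6.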

Each structure is given as a SMILES string. pEC50, pKi: −log10 of the molar value.

Chain of isolated recombinant JAK2 kinase domain (O60674 849-1124): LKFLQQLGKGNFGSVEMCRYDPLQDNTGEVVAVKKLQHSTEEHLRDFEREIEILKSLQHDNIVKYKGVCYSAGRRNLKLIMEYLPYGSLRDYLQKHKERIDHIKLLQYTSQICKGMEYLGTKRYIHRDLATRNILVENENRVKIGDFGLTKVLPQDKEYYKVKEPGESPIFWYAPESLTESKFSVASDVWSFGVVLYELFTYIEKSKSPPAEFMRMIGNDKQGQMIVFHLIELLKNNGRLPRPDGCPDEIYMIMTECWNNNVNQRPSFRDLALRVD
Chain of isolated recombinant JAK1 kinase domain (P23458 875-1153): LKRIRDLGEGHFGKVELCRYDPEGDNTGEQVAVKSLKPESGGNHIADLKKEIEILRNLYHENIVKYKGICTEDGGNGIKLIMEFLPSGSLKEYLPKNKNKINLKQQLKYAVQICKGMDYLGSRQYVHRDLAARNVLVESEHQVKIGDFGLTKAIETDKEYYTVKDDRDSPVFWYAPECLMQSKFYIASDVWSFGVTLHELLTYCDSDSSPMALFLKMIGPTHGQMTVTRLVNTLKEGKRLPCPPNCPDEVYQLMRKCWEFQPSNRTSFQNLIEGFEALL

Usually pKi stands for the Ki on a negative log10 scale, so that one unit is a factor of ten. On to `CN(CCc1ccc(O)cc1)C1CCN(C(=O)Cn2cc(NC(=O)c3cnn4cccnc34)c(-c3cc(Cl)ccc3OC(F)F)n2)CC1` [Example 90, N-[3-[5-chloro-2-(difluoromethoxy)phenyl]-1-[2-[4-[2-(4-hydroxyphenyl)ethyl-methyl-amino]-1-piperidyl]-2-oxo-ethyl]pyrazol-4-yl]pyrazolo[1,5-a]pyrimidine-3-carboxamide], for which the values for the pKi in test [1] and in test [2] were 9.02 and 8.88, respectively. Besides, in test [3], the pEC50 was 7.63.

As to `O=C(Nc1cn(CC(=O)N2CCC(NCCc3ccc(O)cc3)CC2)nc1-c1cc(Cl)ccc1OC(F)F)c1cnn2cccnc12` [Example 91, N-[3-[5-chloro-2-(difluoromethoxy)phenyl]-1-[2-[4-[2-(4-hydroxyphenyl)ethyl-amino]-1-piperidyl]-2-oxo-ethyl]pyrazol-4-yl]pyrazolo[1,5-a]pyrimidine-3-carboxamide], the pKi in test [1] was 9.12; in test [2], 8.94. Also, the pEC50 in test [3] is 6.83.

Turning to `O=C(Nc1cn(CC(=O)N2CCC(NCCc3ccc(Cl)cc3)CC2)nc1-c1cc(Cl)ccc1OC(F)F)c1cnn2cccnc12` [Example 92, N-[3-[5-chloro-2-(difluoromethoxy)phenyl]-1-[2-[4-[2-(4-chlorophenyl)ethylamino]-1-piperidyl]-2-oxo-ethyl]pyrazol-4-yl]pyrazolo[1,5-a]pyrimidine-3-carboxamide], the pKi is 9.04 in test [1] and 8.69 in test [2]. For the same compound, the pEC50 in test [3] was 7.25.

On to `COc1ccc(CCN(C)C2CCN(C(=O)Cn3cc(NC(=O)c4cnn5cccnc45)c(-c4cc(Cl)ccc4OC(F)F)n3)CC2)cc1` [Example 95, N-[3-[5-chloro-2-(difluoromethoxy)phenyl]-1-[2-[4-[2-(4-methoxyphenyl)ethyl-methyl-amino]-1-piperidyl]-2-oxo-ethyl]pyrazol-4-yl]pyrazolo[1,5-a]pyrimidine-3-carboxamide], for which the figures for the pKi in test [1] and in test [2] were 9.10 and 8.59, respectively. The pEC50 in test [3] is 7.76.

Turning to `CN(CC1(C)COC1)C1CCN(C(=O)Cn2cc(NC(=O)c3cnn4cccnc34)c(-c3cc(Cl)ccc3OC(F)F)n2)CC1` [Example 96, N-[3-[5-chloro-2-(difluoromethoxy)phenyl]-1-[2-[4-[methyl-[(3-methyloxetan-3-yl)methyl]amino]-1-piperidyl]-2-oxo-ethyl]pyrazol-4-yl]pyrazolo[1,5-a]pyrimidine-3-carboxamide], the pKi is 9.20 in test [1] and 8.85 in test [2]. In test [3], the pEC50 was 8.39.

`CN(CCc1ccc(C(F)(F)F)cc1)C1CCN(C(=O)Cn2cc(NC(=O)c3cnn4cccnc34)c(-c3cc(Cl)ccc3OC(F)F)n2)CC1` [Example 97, N-[3-[5-chloro-2-(difluoromethoxy)phenyl]-1-[2-[4-[methyl-[2-[4-(trifluoromethyl)phenyl]ethyl]amino]-1-piperidyl]-2-oxo-ethyl]pyrazol-4-yl]pyrazolo[1,5-a]pyrimidine-3-carboxamide]: the pKi is 8.94 in test [1] and 8.71 in test [2]. Besides, the pEC50 in test [3] is 6.73.

`CN(CCOc1ccccc1)C1CCN(C(=O)Cn2cc(NC(=O)c3cnn4cccnc34)c(-c3cc(Cl)ccc3OC(F)F)n2)CC1` [Example 100, N-[3-[5-chloro-2-(difluoromethoxy)phenyl]-1-[2-[4-[methyl(2-phenoxyethyl)amino]-1-piperidyl]-2-oxo-ethyl]pyrazol-4-yl]pyrazolo[1,5-a]pyrimidine-3-carboxamide]: the negative-log Ki (pKi) in test [1] is 9.08; in test [2], 8.70. In addition, in test [3], the pEC50 is 8.27.

As for `CN(CCC1CCCCC1)C1CCN(C(=O)Cn2cc(NC(=O)c3cnn4cccnc34)c(-c3cc(Cl)ccc3OC(F)F)n2)CC1` [Example 101, N-[3-[5-chloro-2-(difluoromethoxy)phenyl]-1-[2-[4-[2-cyclohexyl-ethyl(methyl)amino]-1-piperidyl]-2-oxo-ethyl]pyrazol-4-yl]pyrazolo[1,5-a]pyrimidine-3-carboxamide], the pKi in test [1] is 9.17; in test [2], 8.75. For the same compound, the pEC50 in test [3] is 7.78.

As to `O=C(Nc1cn(CC(=O)N2CCC(N(CCc3ccccc3)CC(F)(F)F)CC2)nc1-c1cc(Cl)ccc1OC(F)F)c1cnn2cccnc12` [Example 103, N-[3-[5-chloro-2-(difluoromethoxy)phenyl]-1-[2-oxo-2-[4-[2-phenylethyl(2,2,2-trifluoroethyl)amino]-1-piperidyl]ethyl]pyrazol-4-yl]pyrazolo[1,5-a]pyrimidine-3-carboxamide], the figures for the pKi in test [1] and in test [2] were 8.40 and 8.10, respectively. Moreover, the pEC50 in test [3] is 6.58.

`CN(CCOc1ccc(Br)cc1)C1CCN(C(=O)Cn2cc(NC(=O)c3cnn4cccnc34)c(-c3cc(Cl)ccc3OC(F)F)n2)CC1` [Example 104, N-[1-[2-[4-[2-(4-bromophenoxy)ethyl-methyl-amino]-1-piperidyl]-2-oxo-ethyl]-3-[5-chloro-2-(difluoromethoxy)phenyl]pyrazol-4-yl]pyrazolo[1,5-a]pyrimidine-3-carboxamide]: the figures for the pKi in test [1] and in test [2] were 9.03 and 8.68, respectively. Moreover, the pEC50 in test [3] was 7.69.

On to `CN(CCOc1ccccc1Br)C1CCN(C(=O)Cn2cc(NC(=O)c3cnn4cccnc34)c(-c3cc(Cl)ccc3OC(F)F)n2)CC1` [Example 105, N-[1-[2-[4-[2-(2-bromophenoxy)ethyl-methyl-amino]-1-piperidyl]-2-oxo-ethyl]-3-[5-chloro-2-(difluoromethoxy)phenyl]pyrazol-4-yl]pyrazolo[1,5-a]pyrimidine-3-carboxamide], for which the pKi in test [1] is 8.84; in test [2], 8.50. For the same compound, the pEC50 in test [3] is 7.30.

With `CN(CCOc1ccccc1Cl)C1CCN(C(=O)Cn2cc(NC(=O)c3cnn4cccnc34)c(-c3cc(Cl)ccc3OC(F)F)n2)CC1` [Example 106, N-[3-[5-chloro-2-(difluoromethoxy)phenyl]-1-[2-[4-[2-(2-chlorophenoxy)ethyl-methyl-amino]-1-piperidyl]-2-oxo-ethyl]pyrazol-4-yl]pyrazolo[1,5-a]pyrimidine-3-carboxamide], the pKi is 8.96 in test [1] and 8.64 in test [2]. In addition, the pEC50 in test [3] was 7.81.

For `CN(CCOc1ccc(Cl)cc1)C1CCN(C(=O)Cn2cc(NC(=O)c3cnn4cccnc34)c(-c3cc(Cl)ccc3OC(F)F)n2)CC1` [Example 107, N-[3-[5-chloro-2-(difluoromethoxy)phenyl]-1-[2-[4-[2-(4-chlorophenoxy)ethyl-methyl-amino]-1-piperidyl]-2-oxo-ethyl]pyrazol-4-yl]pyrazolo[1,5-a]pyrimidine-3-carboxamide], the pKi in test [1] was 9.01; in test [2] it was 8.60. Further, in test [3], the pEC50 is 7.75.

Consider `CCCCN(CCOc1ccc(C)cc1)C1CCN(C(=O)Cn2cc(NC(=O)c3cnn4cccnc34)c(-c3cc(Cl)ccc3OC(F)F)n2)CC1` [Example 108, N-[1-[2-[4-[butyl-[2-(4-methylphenoxy)ethyl]amino]-1-piperidyl]-2-oxo-ethyl]-3-[5-chloro-2-(difluoromethoxy)phenyl]pyrazol-4-yl]pyrazolo[1,5-a]pyrimidine-3-carboxamide], for which the figures for the pKi in test [1] and in test [2] were 8.61 and 8.44, respectively. Moreover, the pEC50 in test [3] is 7.37.

Turning to `C=CCN(CCOc1ccc(C)cc1)C1CCN(C(=O)Cn2cc(NC(=O)c3cnn4cccnc34)c(-c3cc(Cl)ccc3OC(F)F)n2)CC1` [Example 109, N-[1-[2-[4-[allyl-[2-(4-methylphenoxy)ethyl]amino]-1-piperidyl]-2-oxo-ethyl]-3-[5-chloro-2-(difluoromethoxy)phenyl]pyrazol-4-yl]pyrazolo[1,5-a]pyrimidine-3-carboxamide], the values for the pKi in test [1] and in test [2] were 8.49 and 8.14, respectively. Moreover, in test [3], the pEC50 is 7.37.

For `O=C(Nc1cn(CC(=O)N2CCC(CN3CCC(F)(F)CC3)(c3ccccc3)CC2)nc1-c1cc(Cl)ccc1OC(F)F)c1cnn2cccnc12` [Example 111, N-[3-[5-chloro-2-(difluoromethoxy)phenyl]-1-[2-[4-[(4,4-difluoro-1-piperidyl)methyl]-4-phenyl-1-piperidyl]-2-oxo-ethyl]pyrazol-4-yl]pyrazolo[1,5-a]pyrimidine-3-carboxamide], the results for the pKi in test [1] and in test [2] were 8.51 and 7.97, respectively. In addition, in test [3], the pEC50 is 6.69.

For the compound `CN(CC1Oc2ccccc2O1)C1CCN(C(=O)Cn2cc(NC(=O)c3cnn4cccnc34)c(-c3cc(Cl)ccc3OC(F)F)n2)CC1` [Example 112, N-[1-[2-[4-[1,3-benzodioxol-2-ylmethyl(methyl)amino]-1-piperidyl]-2-oxo-ethyl]-3-[5-chloro-2-(difluoromethoxy)phenyl]pyrazol-4-yl]pyrazolo[1,5-a]pyrimidine-3-carboxamide], the pKi was 9.35 in test [1] and 9.00 in test [2]. The pEC50 in test [3] is 7.02.

Turning to `CN(Cc1cccc(Oc2ccccc2)c1)C1CCN(C(=O)Cn2cc(NC(=O)c3cnn4cccnc34)c(-c3cc(Cl)ccc3OC(F)F)n2)CC1` [Example 113, N-[3-[5-chloro-2-(difluoromethoxy)phenyl]-1-[2-[4-[methyl-[(3-phenoxyphenyl)methyl]amino]-1-piperidyl]-2-oxo-ethyl]pyrazol-4-yl]pyrazolo[1,5-a]pyrimidine-3-carboxamide], the pKi in test [1] is 8.92; in test [2], 8.67. For the same compound, in test [3], the pEC50 is 7.51.

Consider `CN(CC1(C#N)CCCCC1)C1CCN(C(=O)Cn2cc(NC(=O)c3cnn4cccnc34)c(-c3cc(Cl)ccc3OC(F)F)n2)CC1` [Example 114, N-[3-[5-chloro-2-(difluoromethoxy)phenyl]-1-[2-[4-[(1-cyanocyclohexyl)methyl-methyl-amino]-1-piperidyl]-2-oxo-ethyl]pyrazol-4-yl]pyrazolo[1,5-a]pyrimidine-3-carboxamide], for which the pKi was 9.28 in test [1] and 8.87 in test [2]. In addition, the pEC50 in test [3] was 7.82.
